# Source: PubChem BioAssay (NCI)
#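 Following 48 hours of exposure in 96-well plates, responses at five concentrations were used to interpolate endpoints linearly. TGI denotes the concentration required for complete inhibition of growth.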
# Tests used:
# Experiment in all cases: NCI-60 cell line screen, 48 h
# KM20L2 colon = system: KM20L2 colon
# RXF-631 renal = system: RXF-631 renal
# M19-MEL melanoma = system: M19-MEL melanoma
# DMS 273 small cell lung = system: DMS 273 small cell lung
# DLD-1 colon = system: DLD-1 colon
# DMS 114 small cell lung = system: DMS 114 small cell lung
# LXFL 529 NSCLC = system: LXFL 529 NSCLC
# HOP-18 NSCLC = system: HOP-18 NSCLC
Structure (SMILES),TGI (KM20L2 colon),TGI (RXF-631 renal),TGI (M19-MEL melanoma),TGI (DMS 273 small cell lung),TGI (DLD-1 colon),TGI (DMS 114 small cell lung),TGI (LXFL 529 NSCLC),TGI (HOP-18 NSCLC)
CC(C)=CC(=O)c1c(C(=O)O)nc2ccccc2[n+]1[O-],> 100 µM,> 100 µM,> 100 µM,> 100 µM,> 100 µM,> 100 µM,> 100 µM,
Cc1ccc(NC(=O)C(=O)Cc2cccc[n+]2[O-])cc1C,> 100 µM,,> 100 µM,,> 100 µM,> 100 µM,> 100 µM,> 100 µM
O=CC1=CCC2c3[nH]c4ccccc4c3CCN2C1 (stereo not given),> 396 µM,,206 µM,212 µM,226 µM,266 µM,137 µM,> 396 µM
CC1(Cl)CC(C)(/C=C/Cl)C(Cl)CC1Cl (stereo not given),31.6 µM,28.7 µM,59.1 µM,,35.7 µM,,28.3 µM,
C(=C\c1c2oc(-c3ccccc3)cc(-c3ccccc3)c-2c2ccccc12)/C=C1\c2ccccc2-c2c(-c3ccccc3)cc(-c3ccccc3)[o+]c21,> 100 µM,,> 100 µM,> 100 µM,> 100 µM,> 100 µM,> 100 µM,
O=C(c1ccccc1)c1cc(Cl)ccc1NCn1nnc2ccccc21,> 100 µM,,> 100 µM,> 100 µM,> 100 µM,> 100 µM,> 100 µM,> 100 µM
Cc1ccc(NCCN(C)C)c2c(=O)c3cc(O)ccc3sc12,22 µM,,23.1 µM,15.9 µM,19.9 µM,28 µM,21.7 µM,15.3 µM
COC(=O)C(NC(=O)c1ccccc1)C(c1c(O)cc(O)cc1O)P(=O)(OC)OC (stereo not given),> 100 µM,> 100 µM,> 100 µM,> 100 µM,> 100 µM,> 100 µM,> 100 µM,
N#CC(NNC(=O)c1ccccc1O)c1c(O)ccc2ccccc12 (stereo not given),68 µM,,9.62 µM,14.2 µM,> 100 µM,5.14 µM,33.4 µM,8.2 µM
Cn1c(NC(=O)NC23CC4CC(CC(C4)C2)C3)nc2ccccc21,> 100 µM,,> 100 µM,> 100 µM,> 100 µM,,> 100 µM,> 100 µM
